Laboratory results taken from patent US10641771B2, “Protein target complex” (HQ Medical Netherlands B.V., priority 2012, dated 2020).

Key:
injured tissues = conditions: Prajapati et al., Mol Imaging 2009; cited from earlier work
4T1-Luc cells = experiment: Dry ice assay: binding to dead cells or uptake by living cells; format: cell-based, mouse; conditions: dry-ice killed 4T1-Luc cells in the center of the wells, 15 min at 37° C.
Description: 4T1-Luc cells were seeded onto individual wells from a 12-well cell culture plate and allowed to grow to confluence in RPMI media supplemented with 10% fetal bovine serum. 4T1-luc2 mouse breast cancer cells were used as the adherence of these cells to the bottom of the culture well remains strong after dry-ice treatment. To initiate cryo-induced cell death, media was discarded and dry-ice was applied to the bottom center of each individual well for 15 sec. Subsequently, fresh medium with different concentrations of the first compound of the invention were added and cells were incubated at 37° C. for 15 min. After incubation, the media were discarded and the cells were washed twice with serum free medium and 0.5 ml fresh RPMI was added to each well. Cells were then visualized using a Licor Odyssey equipped with 700 and 800 nm diode laser. Luciferin ([…]) was also added to each well and fluorescence and bioluminescence images were acquired using an IVIS Spectrum (fluorescence: excitation filter: 710 nm, emission filter: 820 nm, exposure time: 90 s, bin: 8, f/stop: 2, field of view: 12.9 cm) (bioluminescence: open filter, exposure time: 30 s, bin: 8, f/stop: 1, field of view: 12.9 cm). Some culture wells were also stained for 15 min with Trypan Blue (0.2% in culture medium) to confirm cell death.

intracellular proteins = experiment: Identification of intracellular proteins that bind HQ5 (lysate incubated with dye); format: binding; conditions: lysate incubated with HQ5 and CW800
Description: FIG. 12 relates to identification of intracellular proteins that bind HQ5. In order to try to identify the protein to which the HQ-dyes bind Lysate is (after pre-treatment) incubated with HQ5 and CW800. Exact protocol and technique not specified. […] A specific HQ5-binding protein has a molecular weight of approx. 40 kD.

4T1 cells = experiment: Confocal microscopy of Gambogic acid treated 4T1 cells; format: cell-based, mouse
Source text: Gambogic acid kills cells leading to membrane disruption. […] Annexin-V-FITC specifically binds to phosphatidyl serine (PS) expressed on the outside of the cell membrane of apoptotic and necrotic cells.
Annexin V, however, can next to late apoptotic and necrotic cells also stain cells in an early stage of apoptosis.

For CC1(C)C(=CC=C2CCCC(C=CC3=[N+](CCCCS(=O)(=O)[O-])c4ccc5ccccc5c4C3(C)C)=C2Cl)N(CCCCS(=O)(=O)[O-])c2ccc3ccccc3c21.[Na+] [IR-820], which blood pool behaviour (injured tissues) is on record?
The blood pool behaviour was “is a blood pool agent that just simply leaks out of blood vessels after disruption of the vessels”.

For CC1(C)C(/C=C/C2=C(Oc3ccc(S(=O)(=O)O)cc3)C(=C/C=C3/N(CCCCS(=O)(=O)O)c4ccc(S(=O)(=O)[O-])cc4C3(C)C)/CCC2)=[N+](CCCCCC(=O)O)c2ccc(S(=O)(=O)O)cc21 [CW800], which “binding to dead cells” value (4T1-Luc cells) is on record?
The value was “specifically and dose-dependently bind to dead cells”.

What about the “proteins bound, HQ5 compared with CW800” value (intracellular proteins) of the same molecule?
The value was “share some but also have different proteins they bind with”.

B1: Annexin V: binds phosphatidyl serine on the outside of the membrane of apoptotic and necrotic cells (protein, UniProt P08758 2-320, looked up)
Annexin A5: AQVLRGTVTDFPGFDERADAETLRKAMKGLGTDEESILTLLTSRSNAQRQEISAAFKTLFGRDLLDDLKSELTGKFEKLIVALMKPSRLYDAYELKHALKGAGTNEKVLTEIIASRTPEELRAIKQVYEEEYGSSLEDDVVGDTSGYYQRMLVVLLQANRDPDAGIDEAQVEQDAQALFQAGELKWGTDEEKFITIFGTRSVSHLRKVFDKYMTISGFQIEETIDRETSGNLEQLLLAVVKSIRSIPAYLAETLYYAMKGAGTDDHTLIRVMVSRSEIDLFNIRKEFRKNFATSLYSMIKGDTSGDYKKALLLLCGEDD
modifications: FITC label
With B1 as the molecule, how does the “number of cells stained” value (4T1 cells) read?
Its value is “stains a larger number of cells than both HQ5 and EtD”.
